According to article PMC7997032, “Organic synthesis and anti-influenza A virus activity of cyclobakuchiols A, B, C, and D” (PLoS ONE, 2021):
Values joined by “and” are separate entries in the source; they are usually repeats but may differ in a detail not shown here. Equal values may be shown once.

Legend:
A/WSN/33 virus [1] = assay: Influenza A viral growth assay (viral titer of culture media); format: cell-based, influenza A H1N1 virus; details: A/WSN/33 (WSN), 12.5uM, average of #1-3 exp (n=9)
A/PR/8/34 virus [2] = assay: RT-qPCR of viral mRNAs (NP, NS1, PA, PB1, PB2, M2) in infected MDCK cells; format: cell-based, influenza A H1N1 virus
A/PR/8/34 virus [3] = assay: Immunofluorescence staining of viral NP in influenza A virus-infected MDCK cells; details: for NP/DAPI (%) ave: average of 9 wells
Experimental: MDCK cells were seeded on a 96-well plate at 1 × 10^4 cells/well. […] Each mixture was added to the cells at 37°C in the presence of 5% CO2. […] After influenza A viral infection for 24 h, the cells were fixed with 4% paraformaldehyde in phosphate-buffered saline (PBS) for 30 min at 4°C and subsequently permeabilized by the addition of 0.3% Triton X-100 for 20 min at 25°C. A mouse primary antibody was used to detect the NP of A/PR/8/34 or A/WSN/33 viruses (FluA-NP 4F1; SouthernBiotech, AL, USA). Alexa Fluor488-conjugated goat anti-mouse IgG (H + L) antibody (Thermo Fisher Scientific) was used as the secondary antibody. Cell nuclei were then stained using diamidino-2-phenylindole (DAPI) (Thermo Fisher Scientific). Wells were photographed using a fluorescence microscope (BIOREVO BZ-X700; Keyence, Osaka, Japan). The proportion of influenza A NP-positive cells per DAPI-positive cells was calculated based on measurements recorded using BZ-X Analyzer software (Keyence).

Nrf2 = Nrf2 reporter assay (dual luciferase system) in MDCK cells; format: cell-based, canine
Experimental: An Nrf2 reporter assay based on the dual luciferase system was performed as previously described. The plasmid pNQO1-ARE (antioxidant response element)-Fluc, provided by Yamamoto M., expressed a Firefly luciferase gene driven by Nrf2 activation, while the plasmid pRL-TK-Rluc vector (Promega, CA, USA) expressed a Renilla luciferase gene driven by the herpes simplex viral thymidine kinase promoter as an internal control. MDCK cells were seeded in a 24-well plate at 1 × 10^5 cells/well and transfected with pNQO1-ARE-luc (0.25 μg) and pRL-TK-Rluc (0.25 μg). At 24 h post-transfection, the cells were treated with 12.5 μM cyclobakuchiols A–D in the infection medium at 37°C under 5% CO2. DMSO (0.125%) and 12.5 μM 1 were used as negative and positive controls, respectively. Total RNA was extracted from the MDCK cell lysates after 24 h of incubation. The levels of Firefly and Renilla luciferase mRNAs were analyzed by RT-qPCR and normalized to that of β-actin mRNA.

A/WSN/33 virus [4] = assay: Immunofluorescence staining of viral NP in influenza A virus-infected MDCK cells; details: WSN
A/PR/8/34 virus [5] = assay: Influenza A viral growth assay (viral titer of culture media); format: cell-based, influenza A H1N1 virus; parameters: viral titer of culture media, individual replicate / viral titer of culture media, ave: unit not given here; details: A/PR/8/34 (PR8), 12.5uM, average of #1-3 exp (n=9)
[6] = test system: canine interferon-β (Ifn-β); assay: RT-qPCR of Ifn-β mRNA in MDCK cells with or without A/PR/8/34 virus; format: cell-based; details: 12.5uM, relative to virus - DMSO; for MDCK IFN-b mRNA, ave: ave of #1-3 exp; for MDCK IFN-b mRNA, individual replicates: replicates 1-3 of #1, #2, #3 exp, listed as Cyclobakuchiol A
[7] = test system: NAD(P)H quinone oxidoreductase 1 (Nqo1); assay: RT-qPCR of Nqo1 mRNA in MDCK cells with or without A/PR/8/34 virus; format: cell-based, canine; details: for NQO1 Canis lupus mRNA, ave / NQO1 Canis lupus mRNA, individual replicates: 12.5uM, MDCK, relative to virus - DMSO; for NQO1 Canis lupus mRNA, ave: ave of #1-3 exp; for NQO1 Canis lupus mRNA, individual replicates: replicates 1-3 of #1, #2, #3 exp, listed as Cyclobakuchiol A
A/PR/8/34 virus [8] = format: cell-based; details: 12.5 μM
[9] = MDCK cells, PR8 virus, relative to DMSO (about 1), ave of #1-3 exp (9 values)
[10] = MDCK cells, PR8 virus, relative to DMSO, replicates 1-3 of #1, #2, #3 exp, listed as Cyclobakuchiol A
[11] = 24h WB, average of 3 experiments
[12] = 24h WB, single experiment, listed as cyclo A

Q: Which results are given for `C=C[C@]1(C)CCC(C(=C)C)C(c2ccc(O)cc2)C1` (stereo in doubt) [cyclobakuchiol A]?
A: viral titer of culture media, ave (A/WSN/33 virus [1]; 12h): 10300; viral titer of culture media, ave (A/WSN/33 virus [1]; 24h): 22944444; viral titer of culture media, ave (A/WSN/33 virus [1]; 48h): 177111111; viral titer of culture media, ave (A/WSN/33 virus [1]; 72h): 106555556; reduction in the level of NP mRNA compared with 4 and 5 (A/PR/8/34 virus [2]; 12.5 μM, 24 h, Fig 6A): significantly stronger; reduction in the level of PB2 mRNA compared with 5 (A/PR/8/34 virus [2]; 12.5 μM, 24 h, Fig 6E): significantly stronger; PR8 NP gene expression qPCR, ave (A/PR/8/34 virus [2]; MDCK PR8, NP mRNA, relative (DMSO about 1), average of #1-3 exp (n=9)): 0.01993; PR8 NP gene expression qPCR, individual replicate (A/PR/8/34 virus [2]; MDCK PR8, NP mRNA, relative (DMSO about 1), replicates of #1-3 exp, listed as Cyclobakuchiol A): 0.004781 and 0.02173 and 0.01679 and 0.02307 and 0.03646 and 0.02695 and 0.03647 and 0.007215 and 0.005883; PR8 NS1 gene expression qPCR, ave (A/PR/8/34 virus [2]; MDCK PR8, NS1 mRNA, relative (DMSO about 1), average of #1-3 exp (n=9)): 0.01311; PR8 NS1 gene expression qPCR, individual replicate (A/PR/8/34 virus [2]; MDCK PR8, NS1 mRNA, relative (DMSO about 1), replicates of #1-3 exp, listed as Cyclobakuchiol A): 0.006023 and 0.01703 and 0.01038 and 0.0146 and 0.02282 and 0.01557 and 0.01791 and 0.008546 and 0.005121; PR8 PA gene expression qPCR, ave (A/PR/8/34 virus [2]; MDCK PR8, PA mRNA, relative (DMSO about 1), average of #1-3 exp (n=9)): 0.01493; PR8 PA gene expression qPCR, individual replicate (A/PR/8/34 virus [2]; MDCK PR8, PA mRNA, relative (DMSO about 1), replicates of #1-3 exp, listed as Cyclobakuchiol A): 0.007746 and 0.01438 and 0.00964 and 0.01502 and 0.02904 and 0.01721 and 0.0228 and 0.01256 and 0.005972; PR8 M2 gene expression qPCR, ave (A/PR/8/34 virus [2]; [9]): 0.01356; PR8 PB1 gene expression qPCR, ave (A/PR/8/34 virus [2]; [9]): 0.01089; PR8 PB2 gene expression qPCR, ave (A/PR/8/34 virus [2]; [9]): 0.01486; PR8 M2 gene expression qPCR, individual replicates (A/PR/8/34 virus [2]; [10]): 0.006283 and 0.01574 and 0.01119 and 0.01541 and 0.02852 and 0.01303 and 0.01716 and 0.01044 and 0.004303; PR8 PB1 gene expression qPCR, individual replicates (A/PR/8/34 virus [2]; [10]): 0.005833 and 0.007225 and 0.006699 and 0.007236 and 0.02285 and 0.01622 and 0.02095 and 0.006264 and 0.00475; PR8 PB2 gene expression qPCR, individual replicates (A/PR/8/34 virus [2]; [10]): 0.006621 and 0.01468 and 0.01232 and 0.01635 and 0.03014 and 0.01618 and 0.02349 and 0.009706 and 0.004275; percentage of influenza A NP-positive cells relative to DMSO (A/PR/8/34 virus [3]; A/PR/8/34, 3.1 μM, 24 h, Fig 4B): significantly reduced; NP/DAPI (%) ave (A/PR/8/34 virus [3]; A/PR/8/34, 3.13 uM): 4.608%; NP/DAPI (%) ave (A/PR/8/34 virus [3]; A/PR/8/34, 6.25 uM): 1.65%; NP/DAPI (%) ave (A/PR/8/34 virus [3]; A/PR/8/34, 12.5 uM): 1.121%; NP (NP-positive cell count) (A/PR/8/34 virus [3]; A/PR/8/34, 12.5 uM, single well, listed as Cyclobaku. A): 4 and 2 and 3; NP/DAPI (%) ave (A/PR/8/34 virus [3]; A/PR/8/34, 25 uM): 0.8303%; NP/DAPI (%) (A/PR/8/34 virus [3]; A/PR/8/34, 25 uM, single well, listed as Cyclobaku. A): 2.804% and 0.7843% and 0.5666% and 0.5181% and 1.085% and 0.489% and 0.3145% and 0.3937%; IC50 (A/PR/8/34 virus [3]; Influenza A virus, PR/8, MDCK, read-out: half maximal (50%) inhibitory concentration (IC50)): 1700 ± 800 nM; Nrf2 activation (reporter assay) in contrast to DMSO (Nrf2; 12.5 μM, 24 h, MDCK cells): induced; pNQO1-ARE-Luc NRF2 reporter assay, ave (Nrf2; 12.5uM, relative to DMSO trans+, ave of #1-3 exp): 1.46; pNQO1-ARE-Luc NRF2 reporter assay, individual replicates (Nrf2; 12.5uM, relative to DMSO trans+, two values each of #1, #2, #3 exp, listed as Cyclobakuchiol A): 1.665 and 1.021 and 1.596 and 1.77 and 1.598 and 1.113; NP/DAPI (%) ave (A/WSN/33 virus [4]; 3.13uM, ave of 9 values (3 exp)): 33.269%; NP/DAPI (%) ave (A/WSN/33 virus [4]; 6.25uM, ave of 9 values (3 exp)): 28.3611%; NP/DAPI (%) ave (A/WSN/33 virus [4]; 12.5uM, ave of 9 values (3 exp)): 27.0591%; NP/DAPI (%) ave (A/WSN/33 virus [4]; 25uM, ave of 9 values (3 exp)): 29.2459%; NP/DAPI (%) ave (A/WSN/33 virus [4]; ave summary, 3.13%): 33.269%; NP/DAPI (%) ave (A/WSN/33 virus [4]; ave summary, 6.25%): 28.3611%; NP/DAPI (%) ave (A/WSN/33 virus [4]; ave summary, 12.50%): 27.0591%; NP/DAPI (%) ave (A/WSN/33 virus [4]; ave summary, 25%): 29.2459%; viral titer of culture media, ave (A/PR/8/34 virus [5]; 12h): 31111.1; viral titer of culture media, ave (A/PR/8/34 virus [5]; 48h): 28888.9; viral titer of culture media, ave (A/PR/8/34 virus [5]; 72h): 20000; MDCK IFN-b mRNA, ave ([6]; virus +): 3.338; MDCK IFN-b mRNA, individual replicates ([6]; virus +): 0.977 and 7.49 and 3.1238 and 7.575 and 1.945 and 2.0516 and 3.014 and 1.296 and 2.57; MDCK IFN-b mRNA, ave ([6]; virus -): 4.43; MDCK IFN-b mRNA, individual replicates ([6]; virus -): 0.3432 and 9.774 and 14.2997 and 12.0611 and 0.902 and 0.6358 and 0.8443 and 0.4235 and 0.5869; relative mRNA level of Nqo1 compared with 4- and 5-treated cells [7]: significantly higher; NQO1 Canis lupus mRNA, ave ([7]; virus + (PR8)): 1.589; NQO1 Canis lupus mRNA, individual replicates ([7]; virus + (PR8)): 2.006 and 1.48 and 1.365 and 1.506 and 1.318 and 1.456 and 1.551 and 1.721 and 1.896; NQO1 Canis lupus mRNA, ave ([7]; virus -): 1.2966; NQO1 Canis lupus mRNA, individual replicates ([7]; virus -): 1.091 and 1.486 and 1.24 and 1.353 and 1.444 and 1.092 and 1.099 and 1.4686 and 1.396; relative mRNA level of Nqo1 compared with DMSO ([7]; without A/PR/8/34 virus, 12.5 μM, 24 h): significantly upregulated; NP/b-actin ave (A/PR/8/34 virus [8]; [11]): 0.4278; NS1/b-actin ave (A/PR/8/34 virus [8]; [11]): 0.4825; NP mean (western blot signal intensity, ImageJ) (A/PR/8/34 virus [8]; [12]): 46.861 and 57.758 and 73.552; NP/b-actin (A/PR/8/34 virus [8]; [12]): 0.5523 and 0.2997 and 0.4315; NS1/b-actin (A/PR/8/34 virus [8]; [12]): 0.4154 and 0.4658 and 0.5663; NS1 mean (western blot signal intensity, ImageJ) (A/PR/8/34 virus [8]; [12]): 72.823 and 75.793 and 55.326; expression level of NP protein compared with the 4 or 5 treatment groups (A/PR/8/34 virus [8]; 24 h post-infection, Fig 7C): significantly reduced
